This test has as its target Isoform Alpha-4-2 of Neuronal acetylcholine receptor subunit alpha-4 (Alpha-4-2) (Rattus norvegicus, UniProt P09483). The test is described as follows: Inhibition Assay.

SMILES strings stand for the structures.

Isoform Alpha-4-2 of Neuronal acetylcholine receptor subunit alpha-4 (Alpha-4-2), sequence (P09483 as listed by the source): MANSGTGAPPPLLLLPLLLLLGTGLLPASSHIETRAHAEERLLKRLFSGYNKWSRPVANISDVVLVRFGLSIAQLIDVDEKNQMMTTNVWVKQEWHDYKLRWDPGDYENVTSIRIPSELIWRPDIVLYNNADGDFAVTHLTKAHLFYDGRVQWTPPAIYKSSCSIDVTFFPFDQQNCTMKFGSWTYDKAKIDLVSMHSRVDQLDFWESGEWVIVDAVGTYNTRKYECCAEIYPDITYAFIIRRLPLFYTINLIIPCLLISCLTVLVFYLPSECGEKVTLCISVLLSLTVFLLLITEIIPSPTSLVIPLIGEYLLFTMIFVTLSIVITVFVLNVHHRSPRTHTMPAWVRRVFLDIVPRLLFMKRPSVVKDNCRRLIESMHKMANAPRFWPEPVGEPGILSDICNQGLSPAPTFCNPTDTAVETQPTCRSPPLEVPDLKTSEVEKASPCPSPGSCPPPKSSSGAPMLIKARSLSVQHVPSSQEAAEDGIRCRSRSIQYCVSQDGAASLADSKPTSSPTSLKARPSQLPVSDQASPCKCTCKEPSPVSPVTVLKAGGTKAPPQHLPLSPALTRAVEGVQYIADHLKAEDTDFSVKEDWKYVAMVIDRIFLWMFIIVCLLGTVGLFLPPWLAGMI

Regarding `Fc1ncc(C2CC3CCC2N3)cc1-c1cccc(Cl)c1` (racemic) [US9150581, RTI-7527-98], affinity was put at a Ki of 0.073 nM.

Turning to `Fc1ncc(C2CC3CCC2N3)cc1-c1ccccc1` (stereo not drawn) [US9150581, RTI-7527-(-)-47], affinity was put at a Ki of 0.26 nM. Compared with the last compound, the Ki is about 3.6-fold higher.

(Values after BindingDB's records for patent US9150581 (Research Triangle Institute, 2015).)
